Reference: ChEMBL document CHEMBL5108043, “Novel benzimidazole-based pseudo-irreversible butyrylcholinesterase inhibitors with neuroprotective activity in an Alzheimer's disease mouse model” (RSC Med Chem, 2022)
≈ marks a conversion by molar mass, not a printed value. Calls of active or inactive are those of the source. The rule behind the calls is not given here.

How the values were obtained:
[1] = target: T1, Cholinesterase (Homo sapiens, UniProt P06276); conditions: time 1.0 hrs
[2] = system: Mus musculus; assay: Anti-alzheimer activity against amyloid beta 25-35 induced learning impairments in Swiss mouse assessed as attenuation of spatial working memory at 0.03 mg/kg, ip administered for 7 days and measured on day 8 by Y-maze test; assay type: functional, organism-based; conditions: time 8.0 day
[3] = target: T2, Acetylcholinesterase (Homo sapiens, UniProt P22303)
T2 sequence (P22303 whole entry): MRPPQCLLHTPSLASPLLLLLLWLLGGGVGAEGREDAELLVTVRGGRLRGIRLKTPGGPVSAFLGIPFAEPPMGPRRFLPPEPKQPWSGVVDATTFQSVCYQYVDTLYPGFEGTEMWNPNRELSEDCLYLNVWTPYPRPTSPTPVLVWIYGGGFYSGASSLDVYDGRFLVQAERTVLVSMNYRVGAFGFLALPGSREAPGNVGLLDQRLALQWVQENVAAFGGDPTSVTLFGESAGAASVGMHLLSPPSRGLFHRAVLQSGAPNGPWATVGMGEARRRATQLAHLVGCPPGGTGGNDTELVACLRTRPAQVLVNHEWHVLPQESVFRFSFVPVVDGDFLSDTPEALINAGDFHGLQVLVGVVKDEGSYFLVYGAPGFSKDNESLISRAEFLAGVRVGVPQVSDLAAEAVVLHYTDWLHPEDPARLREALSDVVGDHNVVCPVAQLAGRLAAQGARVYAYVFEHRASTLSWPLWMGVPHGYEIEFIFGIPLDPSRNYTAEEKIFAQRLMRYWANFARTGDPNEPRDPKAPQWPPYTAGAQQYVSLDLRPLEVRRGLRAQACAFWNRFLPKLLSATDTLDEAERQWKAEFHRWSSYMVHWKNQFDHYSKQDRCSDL
Description: Inhibition of human AChE using acetylthiocholine iodide as substrate preincubated for 20 mins followed by substrate addition and measured every 30 sec for 3 mins by DTNB-based UV analysis

[4] = physchem; conditions: PBS buffer
Description: (§1) Solubility of the compound in PBS buffer incubated overnight at room temperature by HPLC based continuous shake-flask method

[5] = target: T3, Cannabinoid receptor 2 (Homo sapiens, UniProt P34972); assay: Displacement of [3H]CP55940 from human CB2 receptor expressed in HEK cells incubated for 3 hrs by competitive assay; assay type: cell-based
T3 sequence (P34972 whole entry): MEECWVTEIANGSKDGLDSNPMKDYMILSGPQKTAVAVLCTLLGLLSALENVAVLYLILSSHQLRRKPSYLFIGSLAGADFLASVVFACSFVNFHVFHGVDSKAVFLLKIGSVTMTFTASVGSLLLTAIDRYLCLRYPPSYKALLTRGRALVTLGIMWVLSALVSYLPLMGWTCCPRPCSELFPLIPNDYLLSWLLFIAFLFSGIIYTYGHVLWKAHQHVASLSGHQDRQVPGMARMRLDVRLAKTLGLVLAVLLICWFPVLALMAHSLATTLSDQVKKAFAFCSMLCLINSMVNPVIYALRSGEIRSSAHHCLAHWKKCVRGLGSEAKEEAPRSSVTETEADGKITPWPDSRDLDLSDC

[6] = target: T1, Cholinesterase; assay: Pseudo-irreversible inhibition of human BChE using butyrylthiocholineiodide as substrate assessed as rate constant k3 preincubated for 20 mins followed by substrate addition and measured every 30 sec for 3 mins by DTNB-based UV analysis; conditions: time 23.0 min
[7] = target: T1, Cholinesterase; assay: Pseudo-irreversible inhibition of human BChE using butyrylthiocholineiodide as substrate assessed as equilibrium constant Kc preincubated for 20 mins followed by substrate addition and measured every 30 sec for 3 mins by DTNB-based UV analysis; conditions: time 23.0 min
[8] = target: T1, Cholinesterase; assay: Pseudo-irreversible inhibition of human BChE assessed as decarbamylation of enzyme by measuring rate constant k4 incubated for 1 hrs
[9] = system: Mus musculus; assay: Anti-alzheimer activity against amyloid beta 25-35 induced learning impairments in Swiss mouse assessed as attenuation of long-term memory at 0.03 mg/kg, ip administered for 7 days and measured on day 10 by passive avoidance test; assay type: functional, organism-based; conditions: time 10.0 day
[10] = Neurotoxicity against mouse HT-22 cells assessed as cell viability at 0.75 to 25 uM by MTT assay; assay type: toxicity, cell-based; conditions: ht-22, 25 µM, dose 0.75-25 µM
[11] = target: T2, Acetylcholinesterase; assay: Inhibition of human AChE using acetylthiocholine iodide as substrate at 10 uM preincubated for 20 mins followed by substrate addition and measured every 30 sec for 3 mins by DTNB-based UV analysis relative to control; conditions: time 23.0 min
[12] = buffer
Description: as §1

[13] = target: T1, Cholinesterase
Description: Inhibition of human BChE using butyrylthiocholineiodide as substrate preincubated for 20 mins followed by substrate addition and measured every 30 sec for 3 mins by DTNB-based UV analysis

[14] = Neurotoxicity against mouse HT-22 cells assessed as cell viability at 1 to 25 uM by MTT assay; assay type: toxicity, cell-based; conditions: ht-22, 25 µM, dose 1-25 µM
[15] = target: T3, Cannabinoid receptor 2; assay: Binding affinity to human CB2 receptor expressed in HEK cells at 10 uM relative to control; assay type: cell-based

T1 sequence (P06276 whole entry): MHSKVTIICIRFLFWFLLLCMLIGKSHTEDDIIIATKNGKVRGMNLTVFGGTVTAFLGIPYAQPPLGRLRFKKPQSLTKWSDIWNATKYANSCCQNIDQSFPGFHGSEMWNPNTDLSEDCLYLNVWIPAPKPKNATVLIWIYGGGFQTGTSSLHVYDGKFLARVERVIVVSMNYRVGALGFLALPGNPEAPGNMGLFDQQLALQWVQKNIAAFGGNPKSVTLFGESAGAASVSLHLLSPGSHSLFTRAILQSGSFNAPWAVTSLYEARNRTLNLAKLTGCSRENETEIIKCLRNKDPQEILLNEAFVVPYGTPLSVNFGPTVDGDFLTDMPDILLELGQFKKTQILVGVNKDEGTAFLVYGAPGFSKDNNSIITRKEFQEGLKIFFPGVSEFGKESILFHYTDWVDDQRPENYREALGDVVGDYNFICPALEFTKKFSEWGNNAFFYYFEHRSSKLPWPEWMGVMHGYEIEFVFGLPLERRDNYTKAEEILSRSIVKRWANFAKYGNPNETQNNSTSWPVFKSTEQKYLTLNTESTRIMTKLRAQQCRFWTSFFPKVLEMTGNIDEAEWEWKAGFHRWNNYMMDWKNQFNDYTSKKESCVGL

CCN(CC)C(=O)c1ccc2c(c1)nc(Cc1ccc(OC(=O)N3CCC3)cc1)n2CCC(C)C
T1/2 [1]: 56.3 min
Activity [2]: Active
IC50 [3]: 631 nM
solubility thermodynamic [4]: 7.2 µg/mL (≈ 15.1 µM)
IC50 [5]: 5010 nM
K [6]: 8.9 min⁻¹
K [7]: 3 µM
K [8]: 0.74 h⁻¹
Activity [9]: Active
Activity [10]: Non-Toxic

CCCCCCCNC(=O)Oc1ccc(Cc2nc3cc(C(=O)Nc4ccccc4)ccc3n2CCC(C)C)cc1
inhibition [11]: 49%
solubility [12]: Insoluble
IC50 [13]: 15.5 nM

CCN(CC)C(=O)c1ccc2c(c1)nc(Cc1ccc(O)cc1)n2CCC(C)C
Activity [14]: Non-Toxic

CCN(CC)C(=O)c1ccc2c(c1)nc(Cc1ccc(OC(=O)N3CCCC3)cc1)n2CCC(C)C
solubility thermodynamic [4]: 3.9 µg/mL (≈ 7.95 µM)
Activity [15]: < 10%
inhibition [11]: 16%
IC50 [13]: 139 nM

CCCCCCCNC(=O)Oc1ccc2c(c1)CN1CCc3ccccc3C1N2C (stereo unspecified)
solubility thermodynamic [4]: < 1 µg/mL
inhibition [11]: 39%

CCCCCCCNC(=O)Oc1ccc(Cc2nc3cc(C(=O)NCCC(C)C)ccc3n2CCC(C)C)cc1
solubility thermodynamic [4]: < 1 µg/mL
inhibition [11]: 55%
IC50 [13]: 3.7 nM

CCCCCCCNC(=O)Oc1ccc(Cc2nc3cc(C(=O)N4CCCCC4)ccc3n2CCC(C)C)cc1
IC50 [3]: 58 nM
solubility thermodynamic [4]: < 1 µg/mL
IC50 [13]: 30.6 nM

CCN(CC)C(=O)c1ccc2c(c1)nc(Cc1ccc(OC(=O)NCCCCCCN3CCc4ccccc4C3)cc1)n2CCC(C)C
IC50 [3]: 9520 nM
solubility [12]: Insoluble
IC50 [13]: 76.5 nM

CCCCCCCNC(=O)Oc1ccc(Cc2nc3cc(C(=O)N(CC)CC)ccc3n2CCCCN2CCCCC2)cc1
IC50 [3]: 2150 nM
solubility thermodynamic [4]: 67 µg/mL (≈ 111 µM)
IC50 [13]: 2410 nM

CCCCCCCNC(=O)Oc1ccc(Cc2nc3cc(C(=O)N(CC)CC)ccc3n2CCC(C)C)cc1
IC50 [3]: 175 nM
solubility thermodynamic [4]: < 1 µg/mL
Activity [15]: 33%
IC50 [13]: 13.2 nM
